The supplement of paper PMC11208160

Test: recombinant barcode read abundance after kanamycin selection (control-corrected) (log10(CPM+1)); higher = more efficient recombination; sequences stand for … in AGTGCAGAGAAAATCGGCCAGTTTTCTCTGCCTGCAGTCCGCATGCCGT…AGATTTATGCAGCGGACTGCCTTTCTCCCAAAGTGATAAACCGGACAGTATCATGGACCGGTTTTCCCGGTAATCCGTATTTGCAAGGTTGGTTTCACT; site = the 11-nt target
Method: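 Pooled E. coli target-specificity screen for the IS621 bridge recombinase. Each library plasmid pairs an 11-nt target (CT core) with a bridge RNA whose target-binding loop (9-nt LTG + 4-nt RTG) is reprogrammed; the rest of the 177-nt WT IS621 bridge RNA scaffold is fixed. The plasmid is co-electroporated with a WT donor plasmid; recombinase is induced with 0.1 mM IPTG and recombinants are selected on kanamycin. Recombinant barcodes are sequenced, converted to CPM, averaged over two biological replicates and corrected by the unselected control CPM. Molecule = full bridge RNA written as DNA: LTG = specificity nt 1-9, RTG = reverse complement of specificity nt 8-11, in the WT scaffold.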
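Note: IS621 recombinase and bridge RNA in Escherichia coli cells.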

Sequence	recombinant barcode read abundance (log10)
AGCATCTCTTGGGTTCTAACCTGTTGCCG (site AGCATCTCTCG)	0.222
AGCATCTCTTGGGTTCTAACCTGTTGCCG (site CCTTGTACTAA)	0.0503
AGCATTCCTTGGGTTCTAACCTGTTGCCT (site AGCAGTGCTAG)	0.144
AGCATTCCTTGGGTTCTAACCTGTTGCCT (site AGCATTCCTAG)	0.394
AGCCCTCCTTGGGTTCTAACCTGTTGCTC (site AGCCCTCCTAA)	0.01
AGCCCTCCTTGGGTTCTAACCTGTTGCTC (site AGCCCTCCTCA)	0.26
AGCCCTCCTTGGGTTCTAACCTGTTGCTC (site AGCCCTCCTGA)	1.19
AGCCCTCCTTGGGTTCTAACCTGTTGCTC (site AGCCCTCCTTA)	0.0233
AGCGGTCCTTGGGTTCTAACCTGTTGCCT (site AGCGGACCTAG)	0.797
AGCGGTCCTTGGGTTCTAACCTGTTGCCT (site AGCGGCCCTAG)	1.05
AGCGGTCCTTGGGTTCTAACCTGTTGCCT (site AGCGGGCCTAG)	0.409
AGCGGTCCTTGGGTTCTAACCTGTTGCCT (site AGCGGTCCTAG)	1.89
AGCGTCGCTTGGGTTCTAACCTGTTGCCT (site AGCGTCGCTAG)	1.45
AGCGTCGCTTGGGTTCTAACCTGTTGCCT (site TGCGTCGCTAG)	0.16
AGCGTTGCTTGGGTTCTAACCTGTTGCCT (site AGCATTGCTAG)	0.558
AGCGTTGCTTGGGTTCTAACCTGTTGCCT (site AGCCTTGCTAG)	0.142
AGCGTTGCTTGGGTTCTAACCTGTTGCCT (site AGCGTTGCTAG)	1.05
AGCGTTGCTTGGGTTCTAACCTGTTGCCT (site AGCTTTGCTAG)	0.16
AGCTCCGCTTGGGTTCTAACCTGTTGCCT (site AGCTCCGCTAG)	0.222
AGCTCCGCTTGGGTTCTAACCTGTTGCCT (site TGCTCGGCTAG)	0.2
AGCTGATCTTGGGTTCTAACCTGTTGCCT (site AGCTGATCTAG)	0.261

Sequence	recombinant barcode read abundance (log10)
AGCTGATCTTGGGTTCTAACCTGTTGCCT (site CGCTGATCTAG)	0.0237
AGCTGATCTTGGGTTCTAACCTGTTGCCT (site GGCTGATCTAG)	0.147
AGCTGATCTTGGGTTCTAACCTGTTGCCT (site TGCTGATCTAG)	0.015
AGCTGGGCTTGGGTTCTAACCTGTTGCGG (site AGCTGGGCTCC)	1.6
AGCTGGGCTTGGGTTCTAACCTGTTGCGG (site AGTTGGGCTCA)	0.393
AGCTTAGCTTGGGTTCTAACCTGTTGCCT (site AGCTTAGCTAG)	0.555
AGCTTAGCTTGGGTTCTAACCTGTTGCCT (site AGCTTAGCTCG)	0.577
AGCTTAGCTTGGGTTCTAACCTGTTGCCT (site AGCTTAGCTGG)	0.206
AGCTTAGCTTGGGTTCTAACCTGTTGCCT (site AGCTTAGCTTG)	0.158
AGGAACCCTTGGGTTCTAACCTGTTGCTA (site AGGAACCCTAA)	0.316
AGGAACCCTTGGGTTCTAACCTGTTGCTA (site AGGAACCCTCA)	0.0647
AGGAACCCTTGGGTTCTAACCTGTTGCTA (site AGGAACCCTGA)	0.02
AGGAACCCTTGGGTTCTAACCTGTTGCTA (site AGGAACCCTTA)	1.44
AGGAACCCTTGGGTTCTAACCTGTTGCTC (site AGGAACCCTAA)	0.19
AGGAACCCTTGGGTTCTAACCTGTTGCTC (site AGGAACCCTCA)	1.05
AGGAACCCTTGGGTTCTAACCTGTTGCTC (site AGGAACCCTGA)	0.574
AGGAACCCTTGGGTTCTAACCTGTTGCTC (site AGGAACCCTTA)	0.0757
AGGAACTCTTGGGTTCTAACCTGTTGCCT (site AGGAACTCTAG)	2.52
AGGAACTCTTGGGTTCTAACCTGTTGCCT (site CGGAACTCTAG)	0.573
AGGAATCCTTGGGTTCTAACCTGTTGCTT (site AGGAATCCTAA)	0.901
AGGAATCCTTGGGTTCTAACCTGTTGCTT (site AGGAGTCCTCA)	0.0229

Sequence	recombinant barcode read abundance (log10)
AGGACAACTTGGGTTCTAACCTGTTGCCT (site AGAACAACTAG)	0.106
AGGACAACTTGGGTTCTAACCTGTTGCCT (site AGCACAACTAG)	0.155
AGGACAACTTGGGTTCTAACCTGTTGCCT (site AGGACAACTAG)	0.048
AGGACAACTTGGGTTCTAACCTGTTGCCT (site AGTACAACTAG)	0.181
AGGAGCCCTTGGGTTCTAACCTGTTGCCT (site AGGAGCCCTAG)	1.48
AGGAGCCCTTGGGTTCTAACCTGTTGCCT (site AGGAGCCCTTG)	0.0624
AGGAGTACTTGGGTTCTAACCTGTTGCTT (site AGGAGTACTAA)	0.761
AGGAGTACTTGGGTTCTAACCTGTTGCTT (site GCATCCTCTTG)	0.12
AGGCCCACTTGGGTTCTAACCTGTTGCAT (site AGGCCCACTAT)	2.12
AGGCCCACTTGGGTTCTAACCTGTTGCAT (site GCTGAGTCTTA)	0.109
AGGCCGGCTTGGGTTCTAACCTGTTGCCG (site AGGCCGCCTCG)	0.294
AGGCCGGCTTGGGTTCTAACCTGTTGCCG (site AGGCCGGCTCG)	0.329
AGGCCGTCTTGGGTTCTAACCTGTTGCGG (site AGGCCGTCTCC)	0.815
AGGCCGTCTTGGGTTCTAACCTGTTGCGG (site CACTACCCTAA)	0.357
AGGCGCCCTTGGGTTCTAACCTGTTGCAC (site AGGCGCCCTAT)	0.249
AGGCGCCCTTGGGTTCTAACCTGTTGCAC (site AGGCGCCCTCT)	0.112
AGGCGCCCTTGGGTTCTAACCTGTTGCAC (site AGGCGCCCTGT)	1.33
AGGCGCCCTTGGGTTCTAACCTGTTGCAC (site AGGCGCCCTTT)	0.0439
AGGCGTACTTGGGTTCTAACCTGTTGCCT (site AGACGTACTAG)	0.0558
AGGCGTACTTGGGTTCTAACCTGTTGCCT (site AGCCGTACTAG)	0.302
AGGCGTACTTGGGTTCTAACCTGTTGCCT (site AGGCGTACTAG)	0.465

Sequence	recombinant barcode read abundance (log10)
AGGCGTACTTGGGTTCTAACCTGTTGCCT (site AGTCGTACTAG)	0.0768
AGGCGTCCTTGGGTTCTAACCTGTTGCCA (site AGGCGTCCTAG)	0.181
AGGCGTCCTTGGGTTCTAACCTGTTGCCA (site AGGCGTCCTCG)	0.056
AGGCGTCCTTGGGTTCTAACCTGTTGCCA (site AGGCGTCCTGG)	0.315
AGGCGTCCTTGGGTTCTAACCTGTTGCCA (site AGGCGTCCTTG)	0.802
AGGCTCCCTTGGGTTCTAACCTGTTGCCT (site AGACTCCCTAG)	0.193
AGGCTCCCTTGGGTTCTAACCTGTTGCCT (site AGCCTCCCTAG)	0.0453
AGGCTCCCTTGGGTTCTAACCTGTTGCCT (site AGGCTCCCTAG)	0.547
AGGCTCCCTTGGGTTCTAACCTGTTGCCT (site AGTCTCCCTAG)	0.619
AGGCTGTCTTGGGTTCTAACCTGTTGCCT (site AGGCTGACTAG)	0.54
AGGCTGTCTTGGGTTCTAACCTGTTGCCT (site AGGCTGCCTAG)	0.613
AGGCTGTCTTGGGTTCTAACCTGTTGCCT (site AGGCTGGCTAG)	0.0597
AGGCTGTCTTGGGTTCTAACCTGTTGCCT (site AGGCTGTCTAG)	1.84
AGGGAAGCTTGGGTTCTAACCTGTTGCCT (site AGGGAAGCTAG)	0.879
AGGGAAGCTTGGGTTCTAACCTGTTGCCT (site AGGGCAGCTAG)	0.385
AGGGAAGCTTGGGTTCTAACCTGTTGCCT (site AGGGGAGCTAG)	0.768
AGGGAAGCTTGGGTTCTAACCTGTTGCCT (site AGGGTAGCTAG)	0.391
AGGGAATCTTGGGTTCTAACCTGTTGCCT (site AGAGAATCTAG)	0.759
AGGGAATCTTGGGTTCTAACCTGTTGCCT (site AGCGAATCTAG)	0.124
